The text below walks through data of US7572814B2, “3,5-dibenzoyl-4-phenyl-piperidine anti-cancer compounds” (Cytokinetics, Incorporated, priority 2005, dated 2009).

The subject of one assay is A549 cells. The conditions noted are these: data provided by National Cancer Institute; cited from earlier work.
The test system of assay [1] is SKOV-3 human ovarian carcinoma. The experiment in a line: Tumor growth delay (TGD) study, established SKOV-3 tumors in athymic nude mice. Format: in vivo. Particulars: 30 mg/kg i.v. qod×5.
Procedure: Certain of the chemical entities described herein were evaluated for in vivo activity against SKOV-3 human ovarian carcinoma in a tumor growth delay (TGD) study. The study utilized eight groups (n=8) of athymic nude mice bearing established (63-144 mm3) SKOV-3 tumors on Day 1, and included a vehicle-treated tumor growth control group and a reference group treated with paclitaxel (30 mg/kg i.v. qod×5). A first chemical entity was evaluated at doses of 300 or 150 mg/kg administered intraperitoneally (i.p.) once daily and at 150 mg/kg administered i.p. twice daily. Doses were administered on study days 1 to 5 and 8 to 12. Tumors were measured twice weekly during the 60-day study. Each animal was euthanized when its tumor reached the endpoint volume of 1500 mm3 or on Day 60, whichever came first, and the time to endpoint (TTE) was calculated for each mouse. Treatment outcome was determined from percent tumor growth delay (% TGD), defined as the percent increase in median TTE of treated versus control mice, with differences in TTE values deemed significant at P □0.05 using logrank analysis. The results presented were calculated based on data acquired through day 33 of the study. The median TTE of the untreated control group was 20.8 days.
A second chemical entity was similarly evaluated at 500 mg/kg administered i.p. once daily.

The structures appear in SMILES notation.

By GI50 is commonly meant the concentration that inhibits growth by half.

As for `O=c1[nH]cc(F)c(=O)[nH]1` [5-fluorouracil], the concentration for 50% growth inhibition (GI50) in the assay with A549 cells is 1000 nM.

For the compound `COc1cccc2c1C(=O)c1c(O)c3c(c(O)c1C2=O)C[C@@](O)(C(=O)CO)C[C@@H]3O[C@H]1C[C@H](N)[C@H](O)[C@H](C)O1` [doxorubicin], in the assay with A549 cells, the concentration for 50% growth inhibition (GI50) is 63 nM.

Take `NC(=O)NO` [hydroxyurea]: the GI50 in the assay with A549 cells was 500000 nM.

With `CC(=O)O[C@H]1C(=O)[C@@]2(C)[C@H]([C@H](OC(=O)c3ccccc3)[C@]3(O)C[C@H](OC(=O)[C@H](O)[C@@H](NC(=O)c4ccccc4)c4ccccc4)C(C)=C1C3(C)C)[C@]1(OC(C)=O)CO[C@@H]1C[C@@H]2O` [paclitaxel], in assay [1] (data through day 33, statistically significant), the “percent tumor growth delay (% TGD)” value amounted to 58%. Besides, the “tumor growth delay (T-C)” value in assay [1] (maximum possible in this study, untreated control median TTE 20.8 days) was determined as 12.2 days. Besides, the GI50 with A549 cells was 4 nM.
